Results reported in patent publication US8658591B2, “Multi-LEU peptides and analogues thereof as selective PACE4 inhibitors and effective antiproliferative agents” (priority 2008, dated 2014).

Key:
Type in all cases: biochemical
PC1/3 = biological target: T1, PC1/3 (Homo sapiens, UniProt P29120); assay: Enzyme inhibition assay, fluorogenic substrate, PC1/3
T1 sequence (P29120 111-753): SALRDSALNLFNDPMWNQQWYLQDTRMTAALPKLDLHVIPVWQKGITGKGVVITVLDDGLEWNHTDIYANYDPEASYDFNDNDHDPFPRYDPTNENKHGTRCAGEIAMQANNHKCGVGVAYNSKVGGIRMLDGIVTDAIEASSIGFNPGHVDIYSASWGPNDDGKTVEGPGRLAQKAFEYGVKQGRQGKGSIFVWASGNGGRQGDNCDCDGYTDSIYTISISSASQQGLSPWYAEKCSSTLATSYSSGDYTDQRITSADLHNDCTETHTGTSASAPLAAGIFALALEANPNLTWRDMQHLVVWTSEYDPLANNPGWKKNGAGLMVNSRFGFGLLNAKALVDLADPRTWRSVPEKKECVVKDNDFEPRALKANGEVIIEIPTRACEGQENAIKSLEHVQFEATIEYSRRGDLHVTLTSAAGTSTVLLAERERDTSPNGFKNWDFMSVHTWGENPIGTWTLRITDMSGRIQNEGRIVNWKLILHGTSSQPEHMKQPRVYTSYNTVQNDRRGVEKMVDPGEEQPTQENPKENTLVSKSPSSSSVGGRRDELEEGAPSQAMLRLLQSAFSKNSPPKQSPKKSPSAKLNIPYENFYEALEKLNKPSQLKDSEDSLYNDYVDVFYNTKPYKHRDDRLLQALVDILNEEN
Procedure: (§1) Enzyme inhibition assays for furin (FIG. 5D) were performed in 100 mM Hepes pH 7.5, 1 mM CaCl2, 1 mM β-mercaptoethanol, 0.5 μg/μL BSA. Assays for PC2 (FIG. 5E) were performed in 20 mM Bis-Tris pH 5,7, 1 mM CaCl2, 0.1% Brij-30. Assays for PC1/3, PC4, PACE4, PC5/6 and PC7 (FIGS. 5F, G, A, B and C respectively) were performed in 20 mM Bis-Tis pH 6.5, 1 mM CaCl2. All assays were performed with the substrate pyroGlu-Arg-[…]-Lys-Arg-methyl-coumaryl-7-amide (SEQ ID NO: 33) (PyrRTKR-MCA (SEQ ID NO: 34)) (Bachem, CA) at 100 μM for furin, PC1/3, PC4, PACE4 and PC5/6, 200 μM for PC2 and 250 μM for PC7. Assays were carried out at 37° C. for 30-60 min and real-time fluorescence was measured with an excitation wavelength of 370 nm and an emission wavelength of 460 nm using a Gemini XS™ 96-well spectrofluorometer and SoftMaxPro4™ software (Molecular Devices, CA). Inhibitory peptides were added to the enzymes at decreasing concentrations from 100 μM to 50 nM and incubated 5 minutes prior to the addition of substrate.

PACE4 = biological target: T2, PACE4 (Homo sapiens, UniProt P29122); assay: Enzyme inhibition assay, fluorogenic substrate, PACE4
T2 sequence (P29122 150-969): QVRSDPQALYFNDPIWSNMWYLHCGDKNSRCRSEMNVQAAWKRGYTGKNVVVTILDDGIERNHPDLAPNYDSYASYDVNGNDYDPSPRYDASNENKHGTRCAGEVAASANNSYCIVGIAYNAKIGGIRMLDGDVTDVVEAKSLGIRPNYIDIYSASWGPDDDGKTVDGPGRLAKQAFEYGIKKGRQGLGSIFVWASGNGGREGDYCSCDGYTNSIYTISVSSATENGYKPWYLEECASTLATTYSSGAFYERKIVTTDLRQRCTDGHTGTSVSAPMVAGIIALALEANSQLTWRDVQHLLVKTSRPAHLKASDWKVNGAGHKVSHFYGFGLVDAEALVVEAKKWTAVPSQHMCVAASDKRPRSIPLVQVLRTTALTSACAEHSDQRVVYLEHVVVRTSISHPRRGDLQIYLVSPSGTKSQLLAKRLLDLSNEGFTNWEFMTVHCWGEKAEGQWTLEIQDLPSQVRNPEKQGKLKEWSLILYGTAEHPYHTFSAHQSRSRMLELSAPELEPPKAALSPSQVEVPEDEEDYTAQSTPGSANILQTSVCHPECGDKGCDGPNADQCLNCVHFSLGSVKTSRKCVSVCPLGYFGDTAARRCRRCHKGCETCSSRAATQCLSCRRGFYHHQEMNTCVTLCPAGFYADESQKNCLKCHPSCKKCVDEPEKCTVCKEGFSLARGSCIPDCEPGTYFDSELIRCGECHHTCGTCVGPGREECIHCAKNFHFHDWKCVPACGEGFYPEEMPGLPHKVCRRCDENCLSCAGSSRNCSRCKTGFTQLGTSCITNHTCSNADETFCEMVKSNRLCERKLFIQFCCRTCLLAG
Text: Those skilled in the art can easily determine PACE4 activity using routine experimentation. For example, the activity assay of PACE4 can be carried out in 96 well plates, and includes the use of a fluorogenic substrate, namely PyrRTKR-AMC (SEQ ID NO: 30) (AMC is amino-methyl-coumarin). The substrate and the purified enzyme are placed in the wells, and depending on the units of enzyme present, the AMC moiety will be cleaved at a certain rate, such a pmoles/sec. The resultant free AMC is now fluorescent and can be detected with a spectrofluorometer. The addition of inhibitors to the assay will yield progress curves that have lesser slopes. Based on these changes the inhibitory constants (Ki) is calculated (Fugere et al., 2002, J. Biol. Chem., 277:7648-56).
as §1

PC7 = biological target: T3, PC7 (Homo sapiens, UniProt Q16549); assay: Enzyme inhibition assay, fluorogenic substrate, PC7
T3 sequence (Q16549 142-785): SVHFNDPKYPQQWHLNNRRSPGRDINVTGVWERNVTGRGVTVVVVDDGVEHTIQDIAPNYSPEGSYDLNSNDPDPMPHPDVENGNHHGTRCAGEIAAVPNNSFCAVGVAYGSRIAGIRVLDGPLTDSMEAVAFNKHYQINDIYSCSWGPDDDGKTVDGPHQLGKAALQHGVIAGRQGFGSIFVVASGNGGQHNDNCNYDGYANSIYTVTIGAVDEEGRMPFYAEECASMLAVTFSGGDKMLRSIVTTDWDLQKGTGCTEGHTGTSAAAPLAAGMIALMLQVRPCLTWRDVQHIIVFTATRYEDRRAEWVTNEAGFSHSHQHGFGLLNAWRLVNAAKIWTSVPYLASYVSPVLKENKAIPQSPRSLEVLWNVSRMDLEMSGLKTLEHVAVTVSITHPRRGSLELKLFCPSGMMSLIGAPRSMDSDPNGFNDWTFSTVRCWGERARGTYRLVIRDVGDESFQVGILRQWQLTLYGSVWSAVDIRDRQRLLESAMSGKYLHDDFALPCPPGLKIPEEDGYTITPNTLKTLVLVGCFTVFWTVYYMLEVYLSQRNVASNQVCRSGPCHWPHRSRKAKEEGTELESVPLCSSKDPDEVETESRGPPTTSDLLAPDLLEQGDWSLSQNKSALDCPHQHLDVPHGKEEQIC
Procedure: as §1

RVKR [RVKR—NH2, RVKR-NH2]
poor micromolar inhibitor: inhibition potency on PC1/3, in words (PC1/3) | inhibition potency on PACE4, in words (PACE4) | inhibition potency on PC7, in words (PC7)
